# “And” between values parts separate entries of the source, which are not always exact repeats. Equal values may be shown once.
# System: 786-0 complex spheroid viability
# Test: Anticancer human tumor 786-0 cell line growth inhibition;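 further: spheroids exposed to agents for seven days before readout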
# Conditions: for viability, T/C: stronger effect = lower value
# Method in brief: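 Drug combinations with the LSD1 inhibitor iadademstat tested on tumor cells co-cultured as spheroids with endothelial cells and mesenchymal stem cells. Concentrations descended in half-log increments from clinical Cmax or 10 microM.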
# [1] = curve of first compound, second compound 0.1 µM
# [2] = curve of first compound, second compound 0.316 µM
# [3] = curve of first compound, second compound 1 µM
# [4] = curve of first compound, second compound 3.16 µM
# [5] = curve of first compound, second compound 10 µM
# [6] = second compound 0.1 µM, first compound 0.00316 µM
# [7] = second compound 0.1 µM, first compound 0.01 µM
# [8] = second compound 0.1 µM, first compound 0.0316 µM
# [9] = second compound 0.1 µM, first compound 0.1 µM
# [10] = second compound 0.316 µM, first compound 0.00316 µM
# [11] = second compound 0.316 µM, first compound 0.01 µM
# [12] = second compound 0.316 µM, first compound 0.0316 µM
# [13] = second compound 0.316 µM, first compound 0.1 µM
# [14] = second compound 1 µM, first compound 0.00316 µM
# [15] = second compound 1 µM, first compound 0.01 µM
# [16] = second compound 1 µM, first compound 0.0316 µM
# [17] = second compound 1 µM, first compound 0.1 µM
# [18] = second compound 3.16 µM, first compound 0.00316 µM
# [19] = second compound 3.16 µM, first compound 0.01 µM
# [20] = second compound 3.16 µM, first compound 0.0316 µM
# [21] = second compound 3.16 µM, first compound 0.1 µM
# [22] = second compound 10 µM, first compound 0.00316 µM
# [23] = second compound 10 µM, first compound 0.01 µM
# [24] = second compound 10 µM, first compound 0.0316 µM
# [25] = second compound 10 µM, first compound 0.1 µM
smiles,measurement,setting,value
NS(=O)(=O)OCC1CC(n2ccc3c(NC4CCc5ccccc54)ncnc32)CC1O (centres undefined) + NC1CC1c1ccc(-c2cccc(O)c2)cc1,IC50,[1],190 nM
same,IC50,[2],178 nM
same,IC50,[3],168 nM
same,IC50,[4],175 nM
same,IC50,[5],165 nM
same,"viability, T/C","second compound 0.1 µM, first compound 0.00949 µM",113%
same,"viability, T/C","second compound 0.1 µM, first compound 0.03 µM",96.6%
same,"viability, T/C","second compound 0.1 µM, first compound 0.0949 µM",94%
same,"viability, T/C","second compound 0.1 µM, first compound 0.3 µM",21%
same,"viability, T/C","second compound 0.1 µM, first compound 0.949 µM",9.54%
same,"viability, T/C","second compound 0.1 µM, first compound 3 µM",13.7%
same,"viability, T/C","second compound 0.316 µM, first compound 0.00949 µM",104%
same,"viability, T/C","second compound 0.316 µM, first compound 0.03 µM",92.9%
same,"viability, T/C","second compound 0.316 µM, first compound 0.0949 µM",88.5%
same,"viability, T/C","second compound 0.316 µM, first compound 0.3 µM",18.2%
same,"viability, T/C","second compound 0.316 µM, first compound 0.949 µM",9.34%
same,"viability, T/C","second compound 0.316 µM, first compound 3 µM",14.3%
same,"viability, T/C","second compound 1 µM, first compound 0.00949 µM",117%
same,"viability, T/C","second compound 1 µM, first compound 0.03 µM",98.6%
same,"viability, T/C","second compound 1 µM, first compound 0.0949 µM",79.1%
same,"viability, T/C","second compound 1 µM, first compound 0.3 µM",20.3%
same,"viability, T/C","second compound 1 µM, first compound 0.949 µM",9.8%
same,"viability, T/C","second compound 1 µM, first compound 3 µM",15.8%
same,"viability, T/C","second compound 3.16 µM, first compound 0.00949 µM",110%
same,"viability, T/C","second compound 3.16 µM, first compound 0.03 µM",88.1%
same,"viability, T/C","second compound 3.16 µM, first compound 0.0949 µM",83.4%
same,"viability, T/C","second compound 3.16 µM, first compound 0.3 µM",20.8%
same,"viability, T/C","second compound 3.16 µM, first compound 0.949 µM",10.9%
same,"viability, T/C","second compound 3.16 µM, first compound 3 µM",16.5%
same,"viability, T/C","second compound 10 µM, first compound 0.00949 µM",99.9%
same,"viability, T/C","second compound 10 µM, first compound 0.03 µM",89%
same,"viability, T/C","second compound 10 µM, first compound 0.0949 µM",76.6%
same,"viability, T/C","second compound 10 µM, first compound 0.3 µM",21.3%
same,"viability, T/C","second compound 10 µM, first compound 0.949 µM",13%
same,"viability, T/C","second compound 10 µM, first compound 3 µM",15.4%
COc1cc(Nc2ncc3c(n2)-c2ccc(Cl)cc2C(c2c(F)cccc2OC)=NC3)ccc1C(=O)O,"viability, T/C",compound 0.00316 µM,109% and 97.4%
same,"viability, T/C",compound 0.01 µM,90.9% and 98.9%
same,"viability, T/C",compound 0.0316 µM,67.5% and 84.2%
same,"viability, T/C",compound 0.1 µM,66.5% and 68.7%
same,"viability, T/C",compound 0.316 µM,54.4% and 56%
same,"viability, T/C",compound 1 µM,37.1% and 44.9%
same,IC50,curve of compound,329 nM and 565 nM
CC[C@@]1(O)C(=O)OCc2c1cc1n(c2=O)Cc2cc3c(CN(C)C)c(O)ccc3nc2-1,"viability, T/C",compound 0.000316 µM,103% and 99.7%
same,"viability, T/C",compound 0.001 µM,96.7% and 96.5%
same,"viability, T/C",compound 0.00316 µM,65.8% and 70.9%
same,"viability, T/C",compound 0.01 µM,15.6% and 24.7%
same,"viability, T/C",compound 0.0316 µM,9.17% and 10.9%
same,"viability, T/C",compound 0.1 µM,4.15% and 4.08%
same,IC50,curve of compound,4.54 nM and 5.35 nM
CC1COCCN1c1cc(-c2ccnn2C)c2ccnc(-c3ccn[nH]3)c2n1 (centres undefined) + NC1CCC(NC2CC2c2ccccc2)CC1,IC50,[1],37.3 nM
same,IC50,[2],36.9 nM
same,IC50,[3],30.7 nM
same,IC50,[4],22.4 nM
same,IC50,[5],12.4 nM
same,"viability, T/C",[6],112%
same,"viability, T/C",[7],110%
same,"viability, T/C",[8],55.5%
same,"viability, T/C",[9],16.3%
same,"viability, T/C","second compound 0.1 µM, first compound 0.316 µM",8.21%
same,"viability, T/C","second compound 0.1 µM, first compound 1 µM",10.2%
same,"viability, T/C",[10],123%
same,"viability, T/C",[11],114%
same,"viability, T/C",[12],55.1%
same,"viability, T/C",[13],16.2%
same,"viability, T/C","second compound 0.316 µM, first compound 0.316 µM",7.09%
same,"viability, T/C","second compound 0.316 µM, first compound 1 µM",12.1%
same,"viability, T/C",[14],116%
same,"viability, T/C",[15],104%
same,"viability, T/C",[16],48.3%
same,"viability, T/C",[17],15.1%
same,"viability, T/C","second compound 1 µM, first compound 0.316 µM",5.97%
same,"viability, T/C","second compound 1 µM, first compound 1 µM",11.4%
same,"viability, T/C",[18],107%
same,"viability, T/C",[19],83.1%
same,"viability, T/C",[20],35.9%
same,"viability, T/C",[21],12.4%
same,"viability, T/C","second compound 3.16 µM, first compound 0.316 µM",5.34%
same,"viability, T/C","second compound 3.16 µM, first compound 1 µM",9.25%
same,"viability, T/C",[22],77.4%
same,"viability, T/C",[23],57%
same,"viability, T/C",[24],19.2%
same,"viability, T/C",[25],5.5%
same,"viability, T/C","second compound 10 µM, first compound 0.316 µM",3.62%
same,"viability, T/C","second compound 10 µM, first compound 1 µM",12%
CC(C)CC(NC(=O)C(Cc1ccccc1)NC(=O)c1cnccn1)B(O)O (centres undefined) + NC1CCC(NC2CC2c2ccccc2)CC1,IC50,[1],2.81 nM
same,IC50,[2],2.56 nM
same,IC50,[3],2.56 nM
same,IC50,[4],2.25 nM
same,IC50,[5],1.95 nM
same,"viability, T/C","second compound 0.1 µM, first compound 0.000316 µM",122%
same,"viability, T/C","second compound 0.1 µM, first compound 0.001 µM",114%
same,"viability, T/C",[6],42.6%
same,"viability, T/C",[7],2.11%
same,"viability, T/C",[8],0.17%
same,"viability, T/C",[9],0.14%
same,"viability, T/C","second compound 0.316 µM, first compound 0.000316 µM",115%
same,"viability, T/C","second compound 0.316 µM, first compound 0.001 µM",110%
same,"viability, T/C",[10],36.6%
same,"viability, T/C",[11],3.06%
same,"viability, T/C",[12],0.46%
same,"viability, T/C",[13],0.16%
same,"viability, T/C","second compound 1 µM, first compound 0.000316 µM",117%
same,"viability, T/C","second compound 1 µM, first compound 0.001 µM",113%
same,"viability, T/C",[14],35.9%
same,"viability, T/C",[15],6.05%
same,"viability, T/C",[16],0.96%
same,"viability, T/C",[17],0.23%
same,"viability, T/C","second compound 3.16 µM, first compound 0.000316 µM",106%
same,"viability, T/C","second compound 3.16 µM, first compound 0.001 µM",102%
same,"viability, T/C",[18],28.2%
same,"viability, T/C",[19],5.87%
same,"viability, T/C",[20],0.76%
same,"viability, T/C",[21],0.29%
same,"viability, T/C","second compound 10 µM, first compound 0.000316 µM",92.1%
same,"viability, T/C","second compound 10 µM, first compound 0.001 µM",86.1%
same,"viability, T/C",[22],24%
same,"viability, T/C",[23],3.66%
same,"viability, T/C",[24],1.18%
same,"viability, T/C",[25],0.23%
